We go through 13 compounds from patent publication US20110224208A1, “NOVEL INHIBITORS OF FLAVIVIRUS REPLICATION” (KATHOLIEKE UNIVERSITEIT LEUVEN, K.U. LEUVEN R&D, priority 2008, published 2011).

In series [1] the test system is HCV replicon I389luc-ubi-neo/NS3-3'/5.1. Description: Anti-HCV replicon assay (luciferase activity) in Huh-5-2 cells. In kind it is cell-based, Hepatitis C virus. To be noted: concentration required to inhibit luciferase activity in the replicon system by 50%. In a few lines: (§1)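 Huh-5-2 cells carrying the luciferase HCV replicon, seeded 24 h, then exposed to serial compound dilutions without G418 for 72 h at 37° C, 5% CO2. Replication read as luciferase luminescence, expressed as percentage of untreated cultures; culture density measured in parallel by MTS.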
(Replicon systems follow genome replication, usually without infectious particles.)

The nature of series [2]: Proliferation of exponentially growing Huh-5-2 cells (MTS method). To be noted: human, CC50, concentration required to inhibit the proliferation of exponentially growing Huh-5-2 cells by 50%. The method, boiled down:
as §1
(Formazan colour is commonly taken as a measure of viable cells.)

The test system of the next series is Huh-5-2 cells. Described as above. Conditions: concentration required to inhibit the proliferation of exponentially growing Huh-5-2 cells by 50%. The method, boiled down: as §1
In series [3] the test system is HCV replicon (RNA) synthesis. Description: Quantitative analysis of HCV replicon RNA by Taqman real-time RT-PCR in Huh-5-2 cells. In kind it is cell-based, Hepatitis C virus. As for the experimental part:
Replicon cells were plated at 7.5×10^3 cells per well in a 96-well plate plates at 37° C. and 5% CO2 in Dulbecco's modified essential medium containing 10% fetal calf serum, 1% nonessential amino acids and 1 mg/ml Geneticin. After allowing 24 h for cell attachment, different dilutions of compound were added to the cultures. Plates were incubated for 5 days, at which time RNA was extracted using the Qiamp Rneazyi Kit (Qiagen, Hilden, Germany). […] After initial activation of uracil-N-glycosylase at 50° C. for 2 minutes, RT was performed at 60° C. for 30 minutes, followed by inactivation of uracil-N-glycosylase at 95° C. for 5 minutes. Subsequent PCR amplification consisted of 40 cycles of denaturation at 94° C. for 20 seconds and annealing and extension at 62° C. for 1 minute in an ABI 7700 sequence detector. For each PCR run, negative template and positive template samples were used. The cycle threshold value (Ct-value) is defined as the number of PCR cycles for which the signal exceeds the baseline, which defines a positive value. The sample was considered to be positive if the Ct-value was <50. Results are expressed as genomic equivalents (GE).

Where [4] appears, read: Hepatitis C virus, Huh-5-2, concentration required to reduce the synthesis of HCV replicon by 50% as determined by real-time quantitative RT-PCR.
The mark [5] stands for this setting: Hepatitis C virus, Huh-5-2, 72 h.

Values after ≈ are worked out from the molar mass of the structure shown. Some results are limits rather than exact numbers.

In turn, `COCCN1C(=O)c2ccccc2C(C(=O)Nc2cccc(OC)c2)C1c1cccs1` (racemic) [C1, 2-(2-methoxyethyl)-N-(3-methoxyphenyl)-1-oxo-3-(thiophen-2-yl)-1,2,3,4-tetrahydroisoquinoline-4-carboxamide] yielded an IC50 in series [1] (72 hours, listed as C1 (cis)) of 0.3 µg/mL (≈ 0.687 µM). The same compound had a cytotoxic concentration (CC50) at 72 h in series [2] (Table 4) of over 50 µg/mL. The same compound returned a CC50 with Huh-5-2 cells (Table 2, listed as C1 (cis)) of 83.7 µg/mL (≈ 192 µM). The compound also returned an EC50 in series [3] (setting [4]) of 24 µg/mL (≈ 55 µM).
`COCCN1C(=O)c2ccccc2C(C(=O)Nc2cccc(OC)c2)C1c1cccs1` (racemic) [C2, 2-(2-methoxyethyl)-N-(3-methoxyphenyl)-1-oxo-3-(thiophen-2-yl)-1,2,3,4-tetrahydroisoquinoline-4-carboxamide] gave an IC50 in series [1] (72 hours, listed as C2 (trans)) of 1.3 µg/mL (≈ 2.98 µM). Besides, the CC50 with Huh-5-2 cells (Table 2, listed as C2 (trans)) is 41.2 µg/mL (≈ 94.4 µM); in the series with Huh-5-2 cells (Table 4) it was over 50 µg/mL. Besides, in series [3] (concentration required to reduce the synthesis of HCV replicon by 50% as determined by real-time quantitative RT-PCR), the EC50 came out at 17.000 µg/mL (≈ 38.9 µM).
As to `COCCN1C(=O)c2c(Cl)cccc2C(C(=O)Nc2cccc(OC)c2)C1c1cccs1` (stereo not shown) [C24, 8-Chloro-2-(2-methoxyethyl)-N-(3-methoxyphenyl)-1-oxo-3-(thiophen-2-yl)-1,2,3,4-tetrahydroisoquinoline-4-carboxamide], in series [1] (setting [5]), the IC50 is 35.7 µg/mL (≈ 75.9 µM). The CC50 with Huh-5-2 cells (Table 2) turned out to be 125 µg/mL (≈ 265 µM).
Consider `COCCN1C(=O)c2cc(F)ccc2C(C(=O)Nc2cccc(OC)c2)C1c1cccs1` (stereo not shown) [C52, 7-Fluoro-2-(2-methoxyethyl)-N-(3-methoxyphenyl)-1-oxo-3-(thiophen-2-yl)-1,2,3,4-tetrahydroisoquinoline-4-carboxamide], for which inhibition in series [1] (setting [5]) was half-maximal at 0.4 µg/mL (≈ 0.88 µM) (IC50). Further, the CC50 at 72 h was 81.2 µg/mL (≈ 179 µM) in series [2] (Table 2) and over 50 µg/mL in series [2] (Table 4). In series [3] (setting [4]), this compound showed an EC50 of under 0.4 µg/mL.
For `COCCN1C(=O)c2ccccc2C(C(=O)Nc2cccc(OC)c2)C1Cc1ccccc1` (stereo not shown) [C68, 3-Benzyl-2-(2-methoxyethyl)-N-(3-methoxyphenyl)-1-oxo-1,2,3,4-tetrahydroisoquinoline-4-carboxamide], the IC50 in series [1] (setting [5]) amounted to 70.6 µg/mL (≈ 159 µM). The CC50 in the series on Huh-5-2 cells (Table 2) turned out to be 125 µg/mL (≈ 281 µM).
In series [1] (setting [5]), `COCCN1C(=O)c2ccccc2C(C(=O)Nc2cccc(OC)c2)C1C#C[Si](C)(C)C` (stereo not shown) [C70, 2-(2-methoxyethyl)-N-(3-methoxyphenyl)-1-oxo-3-((trimethylsilyl)ethynyl)-1,2,3,4-tetrahydroisoquinoline-4-carboxamide] came in with a half-maximal inhibitory concentration (IC50) of 3.33 µg/mL (≈ 7.39 µM). In the series on Huh-5-2 cells (Table 2), this compound came in with a CC50 of 125 µg/mL (≈ 277 µM).
The matching figures for `COCCN1C(=O)c2ccccc2C(C(=O)Nc2cccc(OC)c2)C1CC(F)(F)F` (stereo not shown) [C71, 2-(2-methoxyethyl)-N-(3-methoxyphenyl)-1-oxo-3-(2,2,2-trifluoroethyl)-1,2,3,4-tetrahydroisoquinoline-4-carboxamide]: 12.6 µg/mL (≈ 28.8 µM) and 125 µg/mL (≈ 286 µM).
For `COCCN1C(=O)c2ccccc2C(CNc2ccc(Cl)cc2)C1c1cccs1` (stereo not shown) [C78, 4-((4-chlorophenylamino)methyl)-2-(2-methoxyethyl)-3-(thiophen-2-yl)-3,4-dihydroisoquinolin-1(2H)-one], half-maximal inhibition in series [1] (setting [5]) (IC50) was put at 50.5 µg/mL (≈ 118 µM). Besides, in the series with Huh-5-2 cells (Table 2), the CC50 amounted to 125 µg/mL (≈ 293 µM).
In the case of `COCCN1C(=O)c2ccccc2C(C(=O)NCc2ccc(OC)cc2)C1c1cccs1` (stereo not shown) [C79, N-(4-methoxybenzyl)-2-(2-methoxyethyl)-1-oxo-3-(thiophen-2-yl)-1,2,3,4-tetrahydroisoquinoline-4-carboxamide], the IC50 in series [1] (setting [5]) amounted to 68.2 µg/mL (≈ 151 µM). For the same compound, in the series on Huh-5-2 cells (Table 2), the CC50 stood at 125 µg/mL (≈ 277 µM).
In series [1] (setting [5]), `COCCN1C(=O)c2ccccc2C(C(=O)Nc2ccc(-n3cccc3)cc2)C1c1cccs1` (stereo not shown) [C116, N-(4-(1H-pyrrol-1-yl)phenyl)-2-(2-methoxyethyl)-1-oxo-3-(thiophen-2-yl)-1,2,3,4-tetrahydroisoquinoline-4-carboxamide] displayed an IC50 of 0.04 µg/mL (≈ 0.0848 µM). The CC50 at 72 h was 72.4 µg/mL (≈ 154 µM) in series [2] (Table 2) and over 50 µg/mL in series [2] (Table 4). This compound registered an EC50 in series [3] (setting [4]) of 0.062 µg/mL (≈ 0.131 µM).
In turn, `C#CC1C(C(=O)Nc2ccc(-n3cccc3)cc2)c2ccccc2C(=O)N1CCOC` (stereo not shown) [C152, N-(4-(1H-pyrrol-1-yl)phenyl)-3-ethynyl-2-(2-methoxyethyl)-1-oxo-1,2,3,4-tetrahydroisoquinoline-4-carboxamide] showed a half-maximal inhibitory concentration (IC50) in series [1] (setting [5]) of 0.2 µg/mL (≈ 0.484 µM). Besides, the CC50 at 72 h in series [2] (Table 2) is 30 µg/mL (≈ 72.6 µM); in series [2] (Table 4) it was over 30 µg/mL. This compound displayed a concentration for a half-maximal effect (EC50) in series [3] (setting [4]) of 0.2 µg/mL (≈ 0.484 µM).
For `COCCN1C(=O)c2ccccc2C(C(=O)Nc2ccc(-c3ccco3)cc2)C1c1cccs1` (stereo not shown) [C159, N-(4-(furan-2-yl)phenyl)-2-(2-methoxyethyl)-1-oxo-3-(thiophen-2-yl)-1,2,3,4-tetrahydroisoquinoline-4-carboxamide], in series [1] (setting [5]), the IC50 was 0.028 µg/mL (≈ 0.0593 µM). In addition, the CC50 at 72 h in series [2] (Table 2) was over 100 µg/mL; in series [2] (Table 4), over 50 µg/mL. Further, the EC50 in series [3] (setting [4]) was 0.064 µg/mL (≈ 0.135 µM).
Compound `COCCN1C(=O)c2ccccc2C(C(=O)Nc2ccc(-c3ccccc3)nc2)C1c1cccs1` (stereo not shown) [C186, 2-(2-methoxyethyl)-1-oxo-N-(6-phenylpyridin-3-yl)-3-(thiophen-2-yl)-1,2,3,4-tetrahydroisoquinoline-4-carboxamide] displayed an IC50 in series [1] (setting [5]) of 0.04 µg/mL (≈ 0.0827 µM). In addition, the CC50 at 72 h is 2.79 µg/mL (≈ 5.77 µM) in series [2] (Table 2) and over 50 µg/mL in series [2] (Table 4). Further, the response in series [3] (setting [4]) was half-maximal at 0.045 µg/mL (≈ 0.0931 µM) (EC50).

One may read the IC50 as the concentration that inhibits the measured activity by half. A high value points to weaker potency. As a reminder, the CC50 is the concentration that lowers cell viability or growth by half. A low value points to harm at low concentration. What is called EC50 is the midpoint of the concentration-response curve. Read a high EC50 as weaker potency.
